2 compounds from US10407735B2, “Schlap-1 ncRNA and uses thereof” (THE REGENTS OF THE UNIVERSITY OF MICHIGAN, priority 2010, dated 2019) can be followed below.

For experiment [1], the system named is LNCAP prostate cells.
Experiment [2] concerns MCF7 breast cancer cells.
Experiment [3] relates to RWPE benign prostate cells.
Experiment [4] has as its system Du145 prostate cancer cells.
Experiment [5] relates to PCAT-14 expression in VCaP and LNCaP cells. Put plainly: Androgen treatment (R1881), ncRNA expression by qPCR. The format is cell-based, human. The settings on record: 5 nM R1881, androgen responsive VCaP and LNCaP cells. An excerpt:
The benign immortalized prostate cell line RWPE as well as PC3, Du145, LNCaP, VCaP, 22Rv1, CWR22, C4-2B, NCI-660, MDA PCa 2b, WPMY-1, and LAPC-4 prostate cell lines were obtained from the American Type Culture Collection (Manassas, Va.). Benign non-immortalized prostate epithelial cells (PrEC) and prostate smooth muscle cells (PrSMC) were obtained from Lonza (Basel, Switzerland). Cell lines were maintained using standard media and conditions. For androgen treatment experiments, LNCaP and VCaP cells were grown in androgen depleted media lacking phenol red and supplemented with 10% charcoal-stripped serum and 1% penicillin-streptomycin. After 48 hours, cells were treated with 5 nM methyltrienolone (R1881, NEN Life Science Products) or an equivalent volume of ethanol. Cells were harvested for RNA at 6, 24, and 48 hours post-treatment. Prostate tissues were obtained from the radical prostatectomy series and Rapid Autopsy Program at the University of Michigan tissue core. These programs are part of the University of Michigan Prostate Cancer Specialized Program Of Research Excellence (S.P.O.R.E.). […]
Quantitative Real-time PCR (qPCR) was performed using Power SYBR Green Mastermix (Applied Biosystems, Foster City, Calif.) on an Applied Biosystems 7900HT Real-Time PCR System. […] Fold changes were calculated relative to GAPDH and normalized to the median value of the benign samples.
(Real-time PCR tracks product formation cycle by cycle.)

On to `C[C@]1(c2nc3c(C(N)=O)cccc3[nH]2)CCCN1` [ABT-888], for which the “sensitivity to PARP1 inhibitor” value in experiment [1] is listed as “reduces sensitivity”; in experiment [2], “does not recapitulate this effect”; in experiment [3], “increases sensitivity”; in experiment [4] it was “increases sensitivity”.

Consider `C[C@]1(O)CC[C@H]2[C@@H]3CCC4=CC(=O)CCC4=C3C=C[C@@]21C` [R1881, methyltrienolone], for which the PCAT-14 expression entry in experiment [5] is given as “induced”.
